The values that follow come from US9242959B2, “(Aza)benzhydryl ether derivatives, their process of preparation and their use as H4-receptor ligands for therapeutical applications” (BIOPROJET, priority 2012, dated 2016).

Series [1] addresses T1, human H4 receptor (Homo sapiens, UniProt Q9H3N8).
T1 construct: expressed in transfected cells
Description: [3H]Histamine binding assay on membranes of CHO cells stably expressing human H4 receptor. As to the method:
CHO cells stably expressing human H4 receptor were grown until sub-confluence and centrifuged at 300 g 15 minutes at 4° C. Pellets were resuspended in buffer I Tris-HCl 50 mM, MgCl2 10 mM, NaCl 140 mM, pH=7.4 supplemented by a 1/50 dilution of a mix of protease inhibitors. The obtained suspension is stirred gently and submitted to a […] exerted through a syringe. The cell lysate is then centrifuged at 300 g 15 minutes at 4° C. in order to eliminate nucleus and cell scraps. The obtained supernatant was then centrifuged at 48000 g for 30 minutes at 4° C. The final pellet is resuspended in buffer I with a potter homogenizer. Aliquots were frozen in liquid nitrogen and stored until use at −80° C. Protein content is measured by the Bradford method.
Defreezed membranes were diluted at a final concentration of 20 μg/180 μL/well in a binding buffer containing 50 mM Tris/HCl, 0.5 mM EDTA, pH=7.4 and distributed in 96 well polystyrene microplate. [^3H] […] Non specific binding was estimated in the presence of 10 μM BP1.2404 (JNJ 7777120). The reaction was terminated by filtration through GF/B filters pre-soaked 2 hours at 4° C. in 1% polyethyleneimine. Filters were rinsed 3 times with 250 μl of ice cold incubation binding buffer.
The filter-bound radioactivity was measured in a liquid scintillation counter Microbeta TRILUX® with 50 μl of scintillation fluid.
The hH4 binding investigated by use of [^3H]

In series [2] the target is T1, human H4 receptor. The series can be described thus: GTPγ[35S] binding assay on membranes of SH-SY5Y cells stably expressing human H4 receptor. Type of series: biochemical. As to the method: SH-SY5Y cells stably expressing human H4 receptor are grown until sub-confluence and centrifuged at 300 g 15 minutes at 4° C. Pellets are resuspended in buffer I Tris-HCl 50 mM, MgCl2 10 mM, NaCl 140 mM, pH=7.4 supplemented by Leupeptin 10 μg/mL, Phenyl Methyl Sulphonyl Fluoride (PMSF) 0.1 mM, Aprotinin 2 μg/mL and Pepstatin 2 μM (or a 1/50 dilution of a mix of protease inhibitors). The obtained suspension is stirred gently and submitted to a […] exerted through a syringe. The cell lysate is then centrifuged at 300 g 15 minutes at 4° C. in order to eliminate nucleus and cell scraps. The obtained supernatant is then centrifuged at 48000 g for 30 minutes at 4° C. The final pellet is resuspended in buffer I with a potter homogenizer. Aliquots are frozen in liquid nitrogen and stored until use at −80° C. Protein content is measured by the Bradford method.
Defreezed membranes are diluted at a final concentration of 5 μg/180 μL/well in buffer I supplemented by GDP 10 μM and distributed in 96 well polystyrene microplate. GTPγ [^35S] labelled ligand (0.2-0.3 nM) is added for additional 30 minutes. After transfer in a Millipore GF/C HTS® microplate, the filtration of the rectional mix is followed by a three times 250 μl wash to stop the reaction.
The filter-bound radioactivity is measured in a liquid scintillation counter Microbeta TRILUX® with 50 μl of scintillation fluid.
Results are expressed with IC50 and Ki values.
(GTPγS is a poorly hydrolysed GTP analogue; its binding reports G protein activation.)

For orientation: melting point means the temperature of the solid-liquid transition. The term Ki denotes a measure of affinity in units of concentration, obtained from inhibition or displacement. Low values mean higher affinity, high ones lower affinity. What is called IC50 is the point on the concentration scale where inhibition reaches its midpoint.

Where a name gives a salt, the structure may show the parent alone.

T1 sequence (Q9H3N8 whole entry): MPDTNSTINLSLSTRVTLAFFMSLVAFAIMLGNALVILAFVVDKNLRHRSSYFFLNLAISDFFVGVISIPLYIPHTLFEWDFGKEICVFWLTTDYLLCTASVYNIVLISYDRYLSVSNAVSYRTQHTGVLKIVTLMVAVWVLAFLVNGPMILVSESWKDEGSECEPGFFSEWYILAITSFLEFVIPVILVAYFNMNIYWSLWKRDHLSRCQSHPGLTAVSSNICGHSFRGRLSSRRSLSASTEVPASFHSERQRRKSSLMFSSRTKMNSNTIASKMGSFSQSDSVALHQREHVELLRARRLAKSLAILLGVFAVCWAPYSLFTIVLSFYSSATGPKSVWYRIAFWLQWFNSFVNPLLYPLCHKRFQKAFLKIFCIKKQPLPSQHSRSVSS

Molecule `CN1CCC(OC(c2ccccn2)c2ccccc2O)CC1` (stereo not shown) (as salt: oxalate) [Example 19, 2-[(1-Methylpiperidin-4-yloxy)pyridin-2-ylmethyl]phenol, oxalate] came in with a melting point of 70 °C.
Molecule `Cc1ccc(C(OC2CCN(C)CC2)c2ccccn2)c(F)c1.O=C(O)C(=O)O.O=C(O)C(=O)O` (stereo not shown) [Example 3, 2-[(2-Fluoro-4-methylphenyl)(1-methylpiperidin-4-yloxy)methyl]pyridine, dioxalate] came in with a melting point of 59 °C. Also, on human H4 receptor [1], the Ki is less than 300 nM.
At human H4 receptor [1], `CN1CCC(OC(c2cccc(C#CCCCCN)c2)c2ccccn2)CC1` (stereo not shown) [Example 5, 6-{3-[(1-Methylpiperidin-4-yloxy)pyridin-2-ylmethyl]phenyl}hex-5-ynylamine, oxalate] showed a Ki of less than 300 nM. In addition, the IC50 at human H4 receptor [2] is less than 300 nM.
The molecule `CN1CCC(OC(c2ccncc2)c2cc(OC(F)(F)F)ccc2F)CC1.O=C(O)C(=O)O.O=C(O)C(=O)O` (stereo not shown) [Example 6, 4-[(2-Fluoro-5-trifluoromethoxyphenyl)(1-methylpiperidin-4-yloxy)methyl]pyridine, dioxalate] gave a melting point of 61 °C. The Ki at human H4 receptor [1] was less than 300 nM.
`Cc1ccnc(C(OC2CCN(C)CC2)c2cc(OC(F)(F)F)ccc2F)c1.O=C(O)C(=O)O.O=C(O)C(=O)O` (stereo not shown) [Example 8, 2-[(2-Fluoro-5-trifluoromethoxyphenyl)(1-methylpiperidin-4-yloxy)methyl]-4-methylpyridine, dioxalate] displayed a melting point of 43 °C. The same molecule registered a Ki at human H4 receptor [1] of less than 300 nM.
Molecule `CN1CCC(OC(c2ccc(Cl)cc2)c2ccc(Cl)cn2)CC1.O=C(O)C(=O)O` (stereo not shown) [Example 9, 5-Chloro-2-[(4-chlorophenyl)(1-methylpiperidin-4-yloxy)methyl]pyridine, oxalate] displayed a melting point of 190 °C. The Ki at human H4 receptor [1] is less than 300 nM.
In turn, `CN1CCC(OC(c2ccc(F)cn2)c2cc(OC(F)(F)F)ccc2F)CC1.O=C(O)C(=O)O` (stereo not shown) [Example 11, 5-Fluoro-2-[(2-fluoro-5-trifluoromethoxyphenyl)(1-methylpiperidin-4-yloxy)methyl]pyridine, oxalate] returned a melting point of 113 °C. The inhibition constant (Ki) at human H4 receptor [1] is less than 1000 nM.
Regarding `COc1cccc(C(OC2CCN(C)CC2)c2ccc(Cl)cn2)c1.O=C(O)C(=O)O` (stereo not shown) [Example 12, 5-Chloro-2-[(3-methoxyphenyl)(1-methylpiperidin-4-yloxy)methyl]pyridine, oxalate], the melting point was 175 °C. Moreover, the Ki at human H4 receptor [1] was less than 1000 nM.
Taken in the same sequence, the figures for `CN1CCC(OC(c2cccc(I)c2)c2ccc(Cl)cn2)CC1.O=C(O)C(=O)O` (stereo not shown) [Example 13, 5-Chloro-2-[(3-iodophenyl)(1-methylpiperidin-4-yloxy)methyl]pyridine, oxalate] were 130 °C and less than 300 nM.
Molecule `Cc1ccc(C(OC2CCN(C)CC2)c2cc(C(F)(F)F)ccn2)c(F)c1.O=C(O)C(=O)O` (stereo not shown) [Example 14, 2-[(2-Fluoro-4-methylphenyl)(1-methylpiperidin-4-yloxy)methyl]-4-trifluoromethylpyridine, oxalate] showed a melting point of 104 °C. In addition, the Ki at human H4 receptor [1] is less than 300 nM.
`CN1CCC(OC(c2ccc(F)cn2)c2ccc(F)c(F)c2O)CC1` (stereo not shown) [Example 15, 2,3-Difluoro-6-[(5-fluoropyridin-2-yl)(1-methylpiperidin-4-yloxy)methyl]phenol] came in with a melting point of 73 °C. The same molecule came in with a Ki on human H4 receptor [1] of less than 1000 nM.
Consider `CN1CCC(OC(c2ccc(Cl)cn2)c2ccc(F)c(F)c2O)CC1` (stereo not shown) [Example 16, 6-[(5-Chloropyridin-2-yl)(1-methylpiperidin-4-yloxy)methyl]-2,3-difluorophenol], for which the melting point came to 68 °C. Further, the Ki at human H4 receptor [1] is less than 300 nM.
For the molecule `CCOC(=O)NCCCCC#Cc1cccc(C(OC2CCN(C)CC2)c2ccccn2)c1.O=C(O)C(=O)O` (stereo not shown) [Example 17, (6-{3-[(1-Methylpiperidin-4-yloxy)pyridin-2-ylmethyl]phenyl}hex-5-ynyl)carbamic acid ethyl ester, oxalate], the melting point was found to be 77 °C. Moreover, the Ki on human H4 receptor [1] is less than 1000 nM.
Molecule `CN1CCC(OC(c2ccccn2)c2ccccc2O)CC1` (stereo not shown) [Example 19, 2-[(1-Methylpiperidin-4-yloxy)pyridin-2-ylmethyl]phenol, oxalate] displayed a Ki at human H4 receptor [1] of less than 300 nM.
Turning to `CN1CCC(OC(c2ccc(F)cn2)c2ccc(F)cc2O)CC1.O=C(O)C(=O)O` (stereo not shown) [Example 20, 5-Fluoro-2-[(5-fluoropyridin-2-yl)(1-methylpiperidin-4-yloxy)methyl]phenol, oxalate], the melting point turned out to be 105 °C. The Ki at human H4 receptor [1] was less than 300 nM.
As for `Cc1ccc(C(OC2CCN(C)CC2)c2ccc(F)cn2)c(O)c1F` (stereo not shown) [Example 21, 2-Fluoro-6-[(5-fluoropyridin-2-yl)(1-methylpiperidin-4-yloxy)methyl]-3-methylphenol], the melting point was determined as 62 °C. On human H4 receptor [1], the Ki was less than 300 nM.
`Cc1ccc(C(OC2CCN(C)CC2)c2ccc(Cl)cn2)c(O)c1F` (stereo not shown) [Example 22, 6-[(5-Chloropyridin-2-yl)(1-methylpiperidin-4-yloxy)methyl]-2-fluoro-3-methylphenol] returned a melting point of 67 °C. In addition, the Ki on human H4 receptor [1] is less than 30 nM.
`CN1CCC(OC(c2ccc(Cl)cn2)c2ccc(F)cc2O)CC1` (stereo not shown) [Example 23, 2-[(5-Chloropyridin-2-yl)(1-methylpiperidin-4-yloxy)methyl]-5-fluorophenol] registered a melting point of 57 °C. This molecule returned a Ki at human H4 receptor [1] of less than 30 nM.
The molecule `Cc1ccc(C(OC2CCN(C)CC2)c2ccc(F)cn2)c(O)c1.O=C(O)C(=O)O` (stereo not shown) [Example 24, 2-[(5-Fluoropyridin-2-yl)(1-methylpiperidin-4-yloxy)methyl]-5-methylphenol, oxalate] returned a melting point of 77 °C. The molecule also showed a Ki at human H4 receptor [1] of less than 30 nM.
`Cc1ccc(C(OC2CCN(C)CC2)c2ccc(Cl)cn2)c(O)c1.O=C(O)C(=O)O` (stereo not shown) [Example 25, 2-[(5-Chloropyridin-2-yl)(1-methylpiperidin-4-yloxy)methyl]-5-methylphenol, oxalate] displayed a melting point of 77 °C. The inhibition constant (Ki) on human H4 receptor [1] is less than 30 nM.
The matching figures for `Cc1ccc(C(OC2CCN(C)CC2)c2cc(F)ccn2)c(O)c1F` (stereo not shown) [Example 26, 2-Fluoro-6-[(4-fluoropyridin-2-yl)(1-methylpiperidin-4-yloxy)methyl]-3-methylphenol]: 64 °C and less than 300 nM.
Taken in the same sequence, the figures for `Cc1ccc(C(OC2CCN(C)CC2)c2cccc(I)c2)cc1.O=C(O)C(=O)O` (stereo not shown) [Example 27, 4-[(3-Iodophenyl)-p-tolylmethoxy]-1-methylpiperidine, oxalate] were 60 °C and less than 1000 nM.
On to `Cc1ccc(C(OC2CCN(C)CC2)c2ccc3ccccc3c2)c(F)c1.O=C(O)C(=O)O` (stereo not shown) [Example 29, 4-[(2-Fluoro-4-methylphenyl)naphthalen-2-yl-methoxy]-1-methylpiperidine, oxalate], for which the melting point came out at 122 °C. The IC50 at human H4 receptor [2] is less than 1000 nM.
As for `Cc1ccc(C(OC2CCN(C)CC2)c2ccc(Cl)cc2)c(F)c1.O=C(O)C(=O)O` (stereo not shown) [Example 34, 4-[(4-Chlorophenyl)(2-fluoro-4-methylphenyl)methoxy]-1-methylpiperidine, oxalate], the melting point turned out to be 165 °C. On human H4 receptor [1], the Ki is less than 300 nM.
`CN1CCC(OC(c2ccc(Cl)cc2)c2cccc(C#CCCCCN)c2)CC1` (stereo not shown) [Example 36, 6-{3-[(4-Chlorophenyl)(1-methylpiperidin-4-yloxy)methyl]phenyl}hex-5-ynylamine, dioxalate] showed an inhibition constant Ki on human H4 receptor [1] of less than 30 nM. This molecule also gave an IC50 on human H4 receptor [2] of less than 30 nM.
With `CN1CCC(OC(c2cccc(I)c2)c2ccccn2)CC1` (stereo not shown) [Example 37, 2-[(3-Iodophenyl)(1-methylpiperidin-4-yloxy)methyl]pyridine, oxalate], the Ki on human H4 receptor [1] is less than 1000 nM.
